Test results: patent US8003670B2, “Aminoalkoxy aryl sulfonamide compounds and their use as 5-HT6 ligands” (Suven Life Sciences Limited, priority 2007, dated 2011)
Structures can show the parent of a compound that is named as a salt.

System: not given
Assay: not given
Settings: not given
Compound `CCc1ccc(S(=O)(=O)n2cc(Br)c3cc(F)ccc32)cc1OC1CCN(C)CC1` [Example 67, 3-Bromo-5-fluoro-1-[4′-ethyl-3′-(1-methylpiperidin-4-yloxy)benzenesulfonyl]-1H-indole] has a melting point of 133.2 to 134.5 °C.
Work on `CCc1ccc(S(=O)(=O)n2ccc3cc(F)ccc32)cc1OC1CCNCC1.Cl` yielded a melting point of 201.46 to 204.21 °C.
In the case of `CCc1ccc(S(=O)(=O)n2cc(Br)c3cc(F)ccc32)cc1OC1CCNCC1.Cl`, the melting point is reported as 289.9 to 291.5 °C.
With `COc1ccc2c(ccn2S(=O)(=O)c2ccc(OC)c(OC3CCNCC3)c2)c1.Cl` [Example 56, 5-Methoxy-1-[4′-methoxy-3′-(piperidin-4-yloxy)benzenesulfonyl]-1H-indole hydrochloride] the melting point was 231.2 to 232.7 °C.
With `COc1ccc(S(=O)(=O)n2ccc3ccc(Cl)cc32)cc1OC1CCN(C)CC1` [Example 62, 6-Chloro-1-[4′-methoxy-3′-(1-methylpiperidin-4-yloxy)benzenesulfonyl]-1H-indole] the melting point was 112 to 115 °C.
Compound `CC(C)c1ccc(S(=O)(=O)n2ccc3cc(F)ccc32)cc1OC1CCN(C)CC1` [Example 53, 5-Fluoro-1-[4′-isopropyl-3′-(1-methylpiperidin-4-yloxy)benzenesulfonyl]-1H-indole] has a melting point of 73.2 to 74.5 °C.
`Cl.O=S(=O)(c1ccc(Cl)c(OC2CCNCC2)c1)n1ccc2ccc(Cl)cc21` gave a melting point of 258.3 to 259.5 °C.
With `COc1ccc2c(c1)c(C)cn2S(=O)(=O)c1ccc(C(C)C)c(OC2CCN(C)CC2)c1` [Example 61, 5-Methoxy-3-methyl-1-[4′-isopropyl-3′-(1-methylpiperidin-4-yloxy)benzenesulfonyl]-1H-indole] the melting point was 73.2 to 74.5 °C.
Work on `COc1ccc(S(=O)(=O)n2ccc3cc(Br)ccc32)cc1OC1CCN(C)CC1` [Example 63, 5-Bromo-1-[4′-methoxy-3′-(1-methylpiperidin-4-yloxy)benzenesulfonyl]-1H-indole] yielded a melting point of 127.2 to 128 °C.

Molecular target: T1, 5-HT6 receptor (Homo sapiens, UniProt P50406)
T1 sequence (P50406 whole entry): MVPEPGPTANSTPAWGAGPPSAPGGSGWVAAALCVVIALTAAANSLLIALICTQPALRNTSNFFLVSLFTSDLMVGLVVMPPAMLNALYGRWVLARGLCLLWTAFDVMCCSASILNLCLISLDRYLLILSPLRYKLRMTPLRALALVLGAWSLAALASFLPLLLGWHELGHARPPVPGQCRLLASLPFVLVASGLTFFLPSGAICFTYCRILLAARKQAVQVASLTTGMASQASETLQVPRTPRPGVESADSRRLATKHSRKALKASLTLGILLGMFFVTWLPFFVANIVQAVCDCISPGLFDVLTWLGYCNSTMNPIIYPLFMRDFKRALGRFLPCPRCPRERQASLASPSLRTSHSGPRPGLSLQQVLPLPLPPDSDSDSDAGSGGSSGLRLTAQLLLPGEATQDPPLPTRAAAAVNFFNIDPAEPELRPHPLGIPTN
Assay: not given
Settings: literature; cited from earlier work
In the case of `CN1CCN2c3ccccc3Cc3ccccc3C2C1` (stereo not drawn) [mianserin], the “Affinity for the 5-HT6 receptor (in words)” value is listed as “high affinity”.
In the case of `CN(C)CCC=C1c2ccccc2CCc2ccccc21` [amitriptyline], the “Affinity for the 5-HT6 receptor (in words)” value is given as “high affinity”.

Molecular target: T1, 5-HT6 receptor
Assay: Binding assay for human 5-HT6 receptor ([3H]LSD radioligand)
Parameters: expressed in transfected cells; host or cells: HEK293
Settings: 100 nM test compound; human recombinant receptor in HEK293 cells; [3H]LSD 1.5 nM; read-out: Radioligand binding data at 5-HT6 R (h) % Inhibition of specific binding at 100 nM
Description: Compounds can be tested according to the following the procedures.
Receptor source: Human recombinant expressed in HEK293 cells
Radioligand: [^3H]LSD (60-80 Ci/mmol)
Final ligand concentration—[1.5 nM]
Non-specific determinant: Methiothepin mesylate—[0.1 μM]
Reference compound: Methiothepin mesylate
Positive control: Methiothepin mesylate
Reactions were carried out in […] TRIS-HCl (pH 7.4) containing […] MgCl2, 0.5 mM EDTA for […] at 37° C. The reaction was terminated by rapid vacuum filtration onto glass fiber filters. Radioactivity trapped onto the filters was determined and compared to control values in order to ascertain any interactions of test compound(s) with the cloned serotonin 5-HT6 binding site.
Mol. Pharmacol. (43): 320-327 (1993).
`CN1CCC(Oc2cc(S(=O)(=O)n3ccc4cc(F)ccc43)ccc2Cl)CC1` [Example 59, 5-Fluoro-1-[4′-chloro-3′-(1-methylpiperidin-4-yloxy)benzenesulfonyl]-1H-indole] gave an inhibition at 0.1 µM of 89.8%.
`Cc1ccc(S(=O)(=O)n2cc(C)c3ccccc32)cc1OC1CCN(C)CC1` [Example 54, 3-Methyl-1-[4′-methyl-3′-(1-methylpiperidin-4-yloxy)benzenesulfonyl]-1H-indole] gave an inhibition at 0.1 µM of 99.7%.
Work on `COc1ccc2c(ccn2S(=O)(=O)c2cccc(OC3CCN(C)CC3)c2)c1` [Example 9, 5-Methoxy-1-[3′-(1-methylpiperidin-4-yloxy)benzenesulfonyl]-1H-indole] yielded an inhibition at 0.1 µM of 58.2%.
With `Cc1ccc(S(=O)(=O)n2ccc3cc(F)ccc32)cc1OC1CCN(C)CC1` [Example 24, 5-Fluoro-1-(4′-methyl-3′-(1-methylpiperidin-4-yloxy)benzenesulfonyl)-1H-indole hydrochloride] the inhibition at 0.1 µM was 89.4%.
`COc1ccc2c(ccn2S(=O)(=O)c2ccc(OC)c(OC3CCNCC3)c2)c1.Cl` [Example 56, 5-Methoxy-1-[4′-methoxy-3′-(piperidin-4-yloxy)benzenesulfonyl]-1H-indole hydrochloride] showed an inhibition at 0.1 µM of 88.6%.
`COc1ccc(S(=O)(=O)n2ccc3cc(F)ccc32)cc1OC1CCN(C)CC1` [Example 58, 5-Fluoro-1-[4′-methoxy-3′-(1-methylpiperidin-4-yloxy)benzenesulfonyl]-1H-indole] gave an inhibition at 0.1 µM of 91.6%.
`COc1ccc2c(ccn2S(=O)(=O)c2ccc(C(C)C)c(OC3CCN(C)CC3)c2)c1` [Example 52, 5-Methoxy-1-[4′-isopropyl-3′-(1-methylpiperidin-4-yloxy)benzenesulfonyl]-1H-indole] gave an inhibition at 0.1 µM of 31.5%.
With `CN1CCC(Oc2cccc(S(=O)(=O)n3ccc4cc(F)ccc43)c2)CC1` [Example 8, 5-Fluoro-1-[3′-(1-methylpiperidin-4-yloxy)benzenesulfonyl]-1H-indole] the inhibition at 0.1 µM was 61.7%.
`CC(C)c1ccc(S(=O)(=O)n2ccc3cc(F)ccc32)cc1OC1CCN(C)CC1` [Example 53, 5-Fluoro-1-[4′-isopropyl-3′-(1-methylpiperidin-4-yloxy)benzenesulfonyl]-1H-indole] gave an inhibition at 0.1 µM of 66.9%.
With `CCc1ccc(S(=O)(=O)n2ccc3cc(OC)ccc32)cc1OC1CCN(C)CC1` [Example 55, 5-Methoxy-1-[4-ethyl-3-(1-methylpiperidin-4-yloxy)benzenesulfonyl]-1H-indole] the inhibition at 0.1 µM was 89%.

Same assay, conditions: human recombinant receptor in HEK293 cells; [3H]LSD 1.5 nM; 37° C.; read-out: Radioligand binding data at 5-HT6 R (h) Ki
`CCc1ccc(S(=O)(=O)n2ccc3ccccc32)cc1OCCCN(C)C` [Example 31, 1-[4′-Ethyl-3′-(N,N-dimethylaminopropoxy)benzenesulfonyl]-1H-indole] gave a Ki of 35.2 nM.
`Cc1ccc(S(=O)(=O)n2ccc3cc(Br)ccc32)cc1OCCN(C)C` [Example 12, 5-Bromo-1-[4′-methyl-3′-(N,N-dimethylaminoethoxy)benzenesulfonyl]-1H-indole] gave a Ki of 28.3 nM.
`Cc1ccc(S(=O)(=O)n2ccc3ccccc32)cc1OCCN(C)C` [Example 10, 1-[4′-Methyl-3′-(N,N-dimethylaminoethoxy)benzenesulfonyl]-1H-indole] gave a Ki of 2.75 nM.
Compound `Cc1ccc(S(=O)(=O)n2ccc3cc(F)ccc32)cc1OCCCN(C)C` [Example 17, 5-Fluoro-1-[4′-Methyl-3′-(N,N-dimethylaminopropoxy)benzenesulfonyl]-1H-indole] has a Ki of 12.5 nM.
`CCc1ccc(S(=O)(=O)n2ccc3ccccc32)cc1OCCN(C)C` [Example 26, 1-[4′-Ethyl-3′-(N,N-dimethylaminoethoxy)benzenesulfonyl]-1H-indole] showed a Ki of 1.9 nM.
Work on `CCc1ccc(S(=O)(=O)n2ccc3ccc(Cl)cc32)cc1OCCCN(C)C` [Example 33, 1-[4′-Ethyl-3′-(N,N-dimethylaminopropoxy)benzenesulfonyl]-6-chloro-1H-indole] yielded a Ki of 5.8 nM.
With `Cc1ccc(S(=O)(=O)n2ccc3cc(F)ccc32)cc1OCCN(C)C` [Example 11, 5-Fluoro-1-[4′-methyl-3′-(N,N-dimethylaminoethoxy)benzenesulfonyl]-1H-indole] the Ki was 5.87 nM.
`COc1ccc2c(ccn2S(=O)(=O)c2ccc(C)c(OCCN(C)C)c2)c1` [Example 13, 1-[4′-Methyl-3′-(N,N-dimethylaminoethoxy)benzenesulfonyl]-5-methoxy-1H-indole] gave a Ki of 11.2 nM.
Compound `COc1ccc2c(ccn2S(=O)(=O)c2ccc(C(C)C)c(OCCCN(C)C)c2)c1` [Example 43, 1-[4′-Isopropyl-3′-(N,N-dimethylaminopropoxy)benzenesulfonyl]-5-Methoxy-1H-indole] has a Ki of 62.5 nM.
Compound `Cc1ccc(S(=O)(=O)n2ccc3cc(Br)ccc32)cc1OCCCN(C)C` [Example 18, 5-Bromo-1-[4′-Methyl-3′-(N,N-dimethylaminopropoxy)benzenesulfonyl]-1H-indole] has a Ki of 11.8 nM.
In the case of `CCc1ccc(S(=O)(=O)n2ccc3cc(F)ccc32)cc1OCCCN(C)C` [Example 35, 1-[4′-Ethyl-3′-(N,N-dimethylaminopropoxy)benzenesulfonyl]-5-fluoro-1H-indole], the Ki is reported as 18.8 nM.
With `Cc1ccc(S(=O)(=O)n2ccc3ccc(Cl)cc32)cc1OCCCN(C)C` [Example 21, 6-Chloro-1-[4′-methyl-3′-(N,N-dimethylaminopropoxy)benzenesulfonyl]-1H-indole] the Ki was 13.1 nM.
With `Cc1ccc(S(=O)(=O)n2ccc3ccccc32)cc1OCCCN(C)C` [Example 16, 1-[4′-Methyl-3′-(N,N-dimethylaminopropoxy)benzenesulfonyl]-1H-indole] the Ki was 1.86 nM.
`CCc1ccc(S(=O)(=O)n2ccc3cc(Br)ccc32)cc1OCCCN(C)C` [Example 32, 5-Bromo-1-[4′-Ethyl-3′-(N,N-dimethylaminopropoxy)benzenesulfonyl]-1H-indole] gave a Ki of 7.55 nM.
In the case of `CCc1ccc(S(=O)(=O)n2ccc3cc(F)ccc32)cc1OCCN(C)C` [Example 30, 1-[4′-Ethyl-3′-(N,N-dimethylaminoethoxy)benzenesulfonyl]-5-fluoro-1H-indole], the Ki is reported as 5.44 nM.
Compound `Cc1ccc(S(=O)(=O)n2ccc3c(Cl)cccc32)cc1OCCCN(C)C` [Example 79, 4-Chloro-1-[4′-Methyl-3′-(N,N-dimethylaminopropoxy)benzenesulfonyl]-1H-indole] has a Ki of 13.6 nM.
`COc1ccc2c(ccn2S(=O)(=O)c2ccc(C)c(OCCCN(C)C)c2)c1` [Example 19, 1-[4′-Methyl-3′-(N,N-dimethylaminopropoxy)benzenesulfonyl]-5-methoxy-1H-indole] gave a Ki of 30.9 nM.
Compound `CCOc1ccc2c(ccn2S(=O)(=O)c2ccc(C)c(OCCCN(C)C)c2)c1` [Example 20, 5-Ethoxy-1-[4′-methyl-3′-(N,N-dimethylaminopropoxy)benzenesulfonyl]-1H-indole] has a Ki of 12.4 nM.
With `Cc1ccc(S(=O)(=O)n2ccc3ccc(Cl)cc32)cc1OCCN(C)C` [Example 15, 6-Chloro-1-[4′-methyl-3′-(N,N-dimethylaminoethoxy)benzenesulfonyl]-1H-indole] the Ki was 1.57 nM.
`CC(C)c1ccc(S(=O)(=O)n2ccc3ccccc32)cc1OCCN(C)C` [Example 36, 1-[4′-Isopropyl-3′-(N,N-dimethylaminoethoxy)benzenesulfonyl]-1H-indole] showed a Ki of 13.9 nM.

System: animal models for schizophrenia
Assay: not given
Settings: literature (Pouzet et al. 2002); cited from earlier work
For `COc1ccc(NS(=O)(=O)c2sc3ccc(Cl)cc3c2C)cc1N1CCNCC1` [SB-271046, 5-Chloro-N-(4-methoxy-3-piperazin-1-ylphenyl)-3-methyl-2-benzothiophenesulfonamide], the “Activity in animal tests related to positive or negative symptoms of schizophrenia” value is listed as “inactive”.
